Experiments:
[1] = Solubility determination; details: for Sol6: pH 6; for Sol7: pH 7
Summary of the method: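 First, TFA-salt peptide was added to 0.1 M sodium diphosphate (pH 6.4 or 7.0) to 10 mg/ml and shaken 2 h at room temperature. Next, insoluble material was filtered off. Finally, filtrate and control, each 1 mg/ml in 50% acetonitrile, were compared by reversed-phase chromatography.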

[2] = molecular target: T1, Human Neuropeptide Y2 Receptor (Homo sapiens, UniProt P49146); assay: Radioligand binding competition assay (RLB); details: Table 3, 125I-PYY(1-36) competition; read-out: Ki
T1 construct: purchased CHEMICON HTS066M
T1 sequence (P49146 1-381): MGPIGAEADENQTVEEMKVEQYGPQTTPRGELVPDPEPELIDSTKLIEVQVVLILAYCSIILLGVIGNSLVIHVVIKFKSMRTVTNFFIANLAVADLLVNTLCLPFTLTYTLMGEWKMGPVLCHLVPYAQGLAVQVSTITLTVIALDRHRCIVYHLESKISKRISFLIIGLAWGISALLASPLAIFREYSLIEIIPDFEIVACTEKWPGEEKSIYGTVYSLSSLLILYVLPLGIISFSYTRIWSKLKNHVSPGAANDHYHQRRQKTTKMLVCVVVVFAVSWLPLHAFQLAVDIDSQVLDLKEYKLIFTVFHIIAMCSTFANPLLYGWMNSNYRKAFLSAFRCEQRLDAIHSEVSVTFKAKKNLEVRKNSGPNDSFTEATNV
Summary of the method: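 Filtration binding assay on human Y2 receptor membrane preparation, 0.5 μg protein per well, in 50 mM HEPES pH 7.4 containing 5 mM MgCl2, 1 mM CaCl2 and 0.2% ovalbumin. Plates shake 2 h at room temperature before harvest and scintillation counting.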

| SMILES | Sol6 [1] [mg/mL] | Sol7 [1] [mg/mL] | Ki [2] [nM] |
| --- | --- | --- | --- |
| CC[C@H](C)[C@H](NC(=O)[C@H](CCC(=O)O)NC(=O)[C@H](CCC(=O)O)NC(=O)[C@@H]1CCCN1C(=O)[C@H](CO)NC(=O)[C@H](C)NC(=O)[C@H](CC(=O)O)NC(=O)[C@H](CCC(=O)O)NC(=O)[C@@H]1CCCN1C(=O)[C@@H]1CCCN1C(=O)[C@H](CCCCNC(=O)CCCCCNC(=O)CC[C@H](NC(=O)CCCCCCCCCCCCCCCCC(=O)O)C(=O)O)NC(=O)[C@H](C)NC(=O)[C@@H]1CCCN1C(=O)[C@H](C)NC(=O)CC(C)C)C(=O)N[C@@H](CCC(N)=O)C(=O)N[C@@H](CCCNC(=N)N)C(=O)N[C@@H](Cc1ccc(O)cc1)C(=O)N[C@@H](Cc1ccc(O)cc1)C(=O)N[C@H](C(=O)N[C@@H](CO)C(=O)N[C@@H](CC(C)C)C(=O)N[C@@H](CCCNC(=N)N)C(=O)N[C@@H](Cc1c[nH]cn1)C(=O)N[C@@H](Cc1ccc(O)cc1)C(=O)N[C@@H](Cc1ccc(O)cc1)C(=O)N[C@@H](CC(N)=O)C(=O)N[C@@H](Cc1c[nH]c2ccccc12)C(=O)N[C@@H](CC(C)C)C(=O)N[C@H](C(=O)N[C@@H](CCCNC(=N)N)C(=O)N[C@@H](CCC(N)=O)C(=O)N[C@@H](CCCNC(=N)N)C(=O)N[C@@H](Cc1ccc(O)cc1)C(N)=O)[C@@H](C)O)C(C)C [Compound 82, N{alpha-4}-(3-methylbutanoyl)-N{epsilon-7}-(6-[(4S)-4-carboxy-4-(17-carboxyheptadecanamido)butanamido]hexanoyl)-[4A,6A,7K,9P,17I,18Q,22V,28Y,30W,31L]-hPYY(4-36)] | 0.0 | 9.0 | 0.58 |
| CC[C@H](C)[C@H](NC(=O)[C@H](CCC(=O)O)NC(=O)[C@H](CCC(=O)O)NC(=O)[C@@H]1CCCN1C(=O)[C@@H](NC(=O)[C@H](C)NC(=O)[C@H](CC(=O)O)NC(=O)[C@H](CCC(=O)O)NC(=O)[C@@H]1CCCN1C(=O)[C@@H]1CCCN1C(=O)[C@H](CCCCNC(=O)CCCCCNC(=O)CC[C@H](NC(=O)CCCCCCCCCCCCCCCCC(=O)O)C(=O)O)NC(=O)[C@H](CCC(=O)O)NC(=O)[C@@H]1CCCN1C(=O)[C@H](C)NC(=O)CC(C)C)[C@@H](C)O)C(=O)N[C@@H](CCC(N)=O)C(=O)N[C@@H](CCCNC(=N)N)C(=O)N[C@@H](Cc1ccc(O)cc1)C(=O)N[C@@H](Cc1ccc(O)cc1)C(=O)N[C@H](C(=O)N[C@@H](CO)C(=O)N[C@@H](CC(C)C)C(=O)N[C@@H](CCCNC(=N)N)C(=O)N[C@@H](Cc1c[nH]cn1)C(=O)N[C@@H](Cc1ccc(O)cc1)C(=O)N[C@@H](Cc1ccc(O)cc1)C(=O)N[C@@H](CC(N)=O)C(=O)N[C@@H](Cc1c[nH]c2ccccc12)C(=O)N[C@@H](CC(C)C)C(=O)N[C@H](C(=O)N[C@@H](CCCNC(=N)N)C(=O)N[C@@H](CCC(N)=O)C(=O)N[C@@H](CCCNC(=N)N)C(=O)N[C@@H](Cc1ccc(O)cc1)C(N)=O)[C@@H](C)O)C(C)C [Compound 28, N{alpha-4}-(3-methylbutanoyl)-N{epsilon-7}-(6-[(4S)-4-carboxy-4-(17-carboxyheptadecanamido)butanamido]hexanoyl)[4A,7K,9P,13T,17I,18Q,22V,28Y,30W,31L]-hPYY(4-36)] | >10.0 | >10.0 | 0.49 |
| CC(C)CC(=O)N[C@@H](C)C(=O)N1CCC[C@H]1C(=O)N[C@@H](C)C(=O)N[C@@H](CCCCNC(=O)CCCCCNC(=O)CC[C@H](NC(=O)CCCCCCCCCCCCCCCCC(=O)O)C(=O)O)C(=O)N1CCC[C@H]1C(=O)N[C@@H](CCC(=O)O)C(=O)N[C@@H](CCC(=O)O)C(=O)N[C@@H](CC(=O)O)C(=O)N[C@@H](C)C(=O)N[C@@H](CO)C(=O)N1CCC[C@H]1C(=O)N[C@@H](CCC(=O)O)C(=O)N[C@@H](CCC(=O)O)C(=O)N[C@@H](CC(C)C)C(=O)N[C@@H](CCC(N)=O)C(=O)N[C@@H](CCCNC(=N)N)C(=O)N[C@@H](Cc1ccc(O)cc1)C(=O)N[C@@H](Cc1ccc(O)cc1)C(=O)N[C@H](C(=O)N[C@@H](CO)C(=O)N[C@@H](CC(C)C)C(=O)N[C@@H](CCCNC(=N)N)C(=O)N[C@@H](Cc1c[nH]cn1)C(=O)N[C@@H](CCC(N)=O)C(=O)N[C@@H](Cc1ccc(O)cc1)C(=O)N[C@@H](CC(N)=O)C(=O)N[C@@H](Cc1c[nH]c2ccccc12)C(=O)N[C@@H](CC(C)C)C(=O)N[C@H](C(=O)N[C@@H](CCCNC(=N)N)C(=O)N[C@@H](CCC(N)=O)C(=O)N[C@@H](CCCNC(=N)N)C(=O)N[C@@H](Cc1ccc(O)cc1)C(N)=O)[C@@H](C)O)C(C)C [Compound 32, N{alpha-4}-(3-methylbutanoyl)-N{epsilon-7}-(6-[(4S)-4-carboxy-4-(17-carboxyheptadecanamido)butanamido]hexanoyl)[4A,6A,7K,9E,18Q,22V,27Q,28Y,30W,31L]-hPYY(4-36)] | 8.2 | 9.3 | 13.6 |

Now from value to molecule:

| Sol6 [1] [mg/mL] | Sol7 [1] [mg/mL] | Ki [2] [nM] | SMILES |
| --- | --- | --- | --- |
| 9.2 | 9.7 | 2.05 | CC(C)CC(=O)N[C@@H](C)C(=O)N1CCC[C@H]1C(=O)N[C@@H](C)C(=O)N[C@@H](CCCCNC(=O)CCCCCNC(=O)CC[C@H](NC(=O)CCCCCCCCCCCCCCCCC(=O)O)C(=O)O)C(=O)N1CCC[C@H]1C(=O)N[C@@H](CCC(=O)O)C(=O)N[C@@H](CCC(=O)O)C(=O)N[C@@H](CC(=O)O)C(=O)N[C@@H](C)C(=O)N[C@@H](CO)C(=O)N1CCC[C@H]1C(=O)N[C@@H](CCC(=O)O)C(=O)N[C@@H](CCC(=O)O)C(=O)N[C@@H](CC(C)C)C(=O)N[C@@H](CCC(N)=O)C(=O)N[C@@H](CCCNC(=N)N)C(=O)N[C@@H](Cc1ccc(O)cc1)C(=O)N[C@@H](Cc1ccc(O)cc1)C(=O)N[C@H](C(=O)N[C@@H](CCC(=O)O)C(=O)N[C@@H](CC(C)C)C(=O)N[C@@H](CCCNC(=N)N)C(=O)N[C@@H](Cc1c[nH]cn1)C(=O)N[C@@H](Cc1ccc(O)cc1)C(=O)N[C@@H](Cc1ccc(O)cc1)C(=O)N[C@@H](CC(N)=O)C(=O)N[C@@H](Cc1c[nH]c2ccccc12)C(=O)N[C@@H](CC(C)C)C(=O)N[C@H](C(=O)N[C@@H](CCCNC(=N)N)C(=O)N[C@@H](CCC(N)=O)C(=O)N[C@@H](CCCNC(=N)N)C(=O)N[C@@H](Cc1ccc(O)cc1)C(N)=O)[C@@H](C)O)C(C)C [Compound 166, N{alpha-4}-(3-methylbutanoyl)-N{epsilon-7}-(6-[(4S)-4-carboxy-4-(17-carboxyheptadecanamido)butanamido]hexanoyl)-[4A,6A,7K,9E,18Q,22V,23E,28Y,30W,31L]-hPYY(4-36)] |
| 9.6 | 10.0 | 8.71 | CC(C)CC(=O)N[C@@H](C)C(=O)N1CCC[C@H]1C(=O)N[C@@H](CCC(=O)O)C(=O)N[C@@H](CCCCNC(=O)CCCCCNC(=O)CC[C@H](NC(=O)CCCCCCCCCCCCCCCCC(=O)O)C(=O)O)C(=O)N1CCC[C@H]1C(=O)N[C@@H](CCC(=O)O)C(=O)N[C@@H](CCC(=O)O)C(=O)N[C@@H](CC(=O)O)C(=O)N[C@@H](C)C(=O)N[C@H](C(=O)N1CCC[C@H]1C(=O)N[C@@H](CCC(=O)O)C(=O)N[C@@H](CCC(=O)O)C(=O)N[C@@H](CC(C)C)C(=O)N[C@@H](CCC(N)=O)C(=O)N[C@@H](CCCNC(=N)N)C(=O)N[C@@H](Cc1ccc(O)cc1)C(=O)N[C@@H](Cc1ccc(O)cc1)C(=O)N[C@H](C(=O)N[C@H](C(=O)N[C@@H](CC(C)C)C(=O)N[C@@H](CCCNC(=N)N)C(=O)N[C@@H](Cc1c[nH]cn1)C(=O)N[C@@H](Cc1ccc(O)cc1)C(=O)N[C@@H](Cc1ccc(O)cc1)C(=O)N[C@@H](CC(N)=O)C(=O)N[C@@H](Cc1c[nH]c2ccccc12)C(=O)N[C@@H](CC(C)C)C(=O)N[C@H](C(=O)N[C@@H](CCCNC(=N)N)C(=O)N[C@@H](CCC(N)=O)C(=O)N[C@@H](CCCNC(=N)N)C(=O)N[C@@H](Cc1ccc(O)cc1)C(N)=O)[C@@H](C)O)C(C)C)C(C)C)[C@@H](C)O [Compound 90, N{alpha-4}-(3-methylbutanoyl)-N{epsilon-7}-(6-[(4S)-4-carboxy-4-(17-carboxyheptadecanamido)butanamido]hexanoyl)-[4A,7K,9E,13T,18Q,22V,23V,28Y,30W,31L]-hPYY(4-36)] |

Source: patent US12391737B2, “Soluble NPY2 receptor agonists” (Boehringer Ingelheim International GmbH, priority 2020, dated 2025)
